# According to PubChem BioAssay AID2061108 (Research group of Professor Matthew Todd, School of …, 2025):
# Calls of active or inactive are those of the source. The rule behind the calls is not given here.
# Legend:
# Assay in all cases: microbial growth inhibition plus red cell haemolysis – Idler compounds, first plate, PMBN-permeabilized strains, profiling panel (AID 2061108)
# Design in all cases: haemolysis: dose or concentration left out as unconfirmed
# [1] = test system: E. coli NCTC 12923 + PMBN growth inhibition, 100 uM; conditions: S. aureus ATCC 9144 growth inhibition; measured here: E. coli plus PMBN; at 100 µM; stronger effect = higher value
# [2] = test system: red blood cell haemolysis; conditions: stronger effect = higher value; dose or concentration not given here
# [3] = test system: E. coli NCTC 12923 growth inhibition, 100 uM; conditions: E. coli NCTC 12923 growth inhibition, 100 µM; stronger effect = higher value
# [4] = test system: C. albicans NCPF 3281 growth inhibition, 100 uM; conditions: S. aureus ATCC 9144 growth inhibition; measured here: C. albicans NCPF 3281; at 100 µM; stronger effect = higher value
# [5] = test system: A. baumannii ATCC 17978 growth inhibition, 100 uM; conditions: S. aureus ATCC 9144 growth inhibition; measured here: A. baumannii ATCC 17978; at 100 µM; stronger effect = higher value
# [6] = test system: M. abscessus growth inhibition, 10 uM; conditions: S. aureus ATCC 9144 growth inhibition; measured here: M. abscessus; at 10 µM
# [7] = test system: M. avium growth inhibition, 10 uM; conditions: M. avium growth inhibition, 10 µM
# [8] = test system: A. baumannii ATCC 17978 + PMBN growth inhibition, 100 uM; conditions: A. baumannii plus PMBN growth inhibition, 100 µM; stronger effect = higher value
# [9] = test system: S. aureus ATCC 9144 growth inhibition, 100 uM; conditions: S. aureus ATCC 9144 growth inhibition; at 100 µM; stronger effect = higher value
Structure (SMILES),inhibition [1] [%],haemolysis [2] [%],inhibition [3] [%],inhibition [4] [%],inhibition [5] [%],inhibition [6] [%],inhibition [7] [%],inhibition [8] [%],inhibition [9]
O=C(CSc1nc(=O)[nH]c2c1CCC2)c1ccc(Cl)cc1,-20,0.151,-22,-110,0,-0.381,0.488,10.9,-14.2% (inactive)
CCC(C)NS(=O)(=O)CCCOc1ccc(F)cc1 (stereo not drawn),-9.51,-0.19,0,-63.1,-4.88,-0.898,-0.527,28.8,10.3% (inactive)
O=C(NC1(c2ccc(Cl)cc2)COC1)c1ccc(N2CCCCC2)cc1,-14,0.302,-30,-54.3,-22.2,-0.149,0.252,13.9,4.21% (inactive)
Nc1ncc(/C=N/NC(=O)c2ccncc2)cn1,-2.1,-0.164,-0.946,3.92,-1.43,-0.71,0.0378,11.3,19.2% (inactive)
Cc1ccc(C)c(N2CCN(C(=O)C3CCN(c4ncnc5c4sc4ncccc45)CC3)CC2)c1,0.988,0.267,9.19,24.6,-3.57,-1.18,9.54,5.07,6.17% (inactive)
O=S(=O)(c1ccc2nncn2c1)N(Cc1cccc(F)c1)c1ccc2c(c1)OCCO2,-20.9,8.17,-55.8,-82.4,-2.17,-0.196,-0.711,11.3,-8.6% (inactive)
O=C(Nc1ccc(Oc2ccccc2)cc1)c1cccc(-c2nn[nH]n2)c1,5.93,1.82,-9.59,-19,-3.57,-0.704,0.254,18.8,9.5% (inactive)
